Several values for one entry are separate records, joined by “and”; a condition that tells them apart may be missing. Identical values can stand only once.
Test system: NCI-H196 complex spheroid viability
Experiment: Anticancer human tumor NCI-H196 cell line growth inhibition [LSD1];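 further: spheroids exposed to agents for 7 days before readout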;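 on viability, T/C: 100% = DMSO vehicle control viability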
Settings: for viability, T/C: stronger effect = lower value
Summary of the method: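 Multicellular complex spheroids of tumor cells with human endothelial cells (HUVEC) and mesenchymal stem cells; the LSD1 inhibitor iadademstat was combined with standard-of-care or investigational agents. Top concentration at or near clinical Cmax, half-log dilutions; final DMSO ≤0.25%.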

[1] = curve of first compound, second compound 0.1 µM
[2] = curve of first compound, second compound 0.316 µM
[3] = curve of first compound, second compound 1 µM
[4] = curve of first compound, second compound 3.16 µM
[5] = curve of first compound, second compound 10 µM
[6] = second compound 0.1 µM, first compound 0.00316 µM
[7] = second compound 0.1 µM, first compound 0.01 µM
[8] = second compound 0.1 µM, first compound 0.0316 µM
[9] = second compound 0.1 µM, first compound 0.1 µM
[10] = second compound 0.1 µM, first compound 0.316 µM
[11] = second compound 0.1 µM, first compound 1 µM
[12] = second compound 0.316 µM, first compound 0.00316 µM
[13] = second compound 0.316 µM, first compound 0.01 µM
[14] = second compound 0.316 µM, first compound 0.0316 µM
[15] = second compound 0.316 µM, first compound 0.1 µM
[16] = second compound 0.316 µM, first compound 0.316 µM
[17] = second compound 0.316 µM, first compound 1 µM
[18] = second compound 1 µM, first compound 0.00316 µM
[19] = second compound 1 µM, first compound 0.01 µM
[20] = second compound 1 µM, first compound 0.0316 µM
[21] = second compound 1 µM, first compound 0.1 µM
[22] = second compound 1 µM, first compound 0.316 µM
[23] = second compound 1 µM, first compound 1 µM
[24] = second compound 3.16 µM, first compound 0.00316 µM
[25] = second compound 3.16 µM, first compound 0.01 µM
[26] = second compound 3.16 µM, first compound 0.0316 µM
[27] = second compound 3.16 µM, first compound 0.1 µM
[28] = second compound 3.16 µM, first compound 0.316 µM
[29] = second compound 3.16 µM, first compound 1 µM
[30] = second compound 10 µM, first compound 0.00316 µM
[31] = second compound 10 µM, first compound 0.01 µM
[32] = second compound 10 µM, first compound 0.0316 µM
[33] = second compound 10 µM, first compound 0.1 µM
[34] = second compound 10 µM, first compound 0.316 µM
[35] = second compound 10 µM, first compound 1 µM

CCc1c2c(nc3ccc(O)cc13)-c1cc3c(c(=O)n1C2)COC(=O)[C@]3(O)CC + NC1CCC(NC2CC2c2ccccc2)CC1
IC50 [1]: 10 nM | IC50 [2]: 9.56 nM | IC50 [3]: 11 nM | IC50 [4]: 10.1 nM | IC50 [5]: 11.4 nM | viability, T/C (second compound 0.1 µM, first compound 0.000949 µM): 113% | viability, T/C (second compound 0.1 µM, first compound 0.003 µM): 104% | viability, T/C (second compound 0.1 µM, first compound 0.00949 µM): 52.8% | viability, T/C (second compound 0.1 µM, first compound 0.03 µM): 3.31% | viability, T/C (second compound 0.1 µM, first compound 0.0949 µM): 0.73% | viability, T/C (second compound 0.1 µM, first compound 0.3 µM): 1.14% | viability, T/C (second compound 0.316 µM, first compound 0.000949 µM): 123% | viability, T/C (second compound 0.316 µM, first compound 0.003 µM): 104% | viability, T/C (second compound 0.316 µM, first compound 0.00949 µM): 52.5% | viability, T/C (second compound 0.316 µM, first compound 0.03 µM): 3.77% | viability, T/C (second compound 0.316 µM, first compound 0.0949 µM): 1.18% | viability, T/C (second compound 0.316 µM, first compound 0.3 µM): 0.82% | viability, T/C (second compound 1 µM, first compound 0.000949 µM): 120% | viability, T/C (second compound 1 µM, first compound 0.003 µM): 111% | viability, T/C (second compound 1 µM, first compound 0.00949 µM): 57.1% | viability, T/C (second compound 1 µM, first compound 0.03 µM): 2.51% | viability, T/C (second compound 1 µM, first compound 0.0949 µM): 0.62% | viability, T/C (second compound 1 µM, first compound 0.3 µM): 0.86% | viability, T/C (second compound 3.16 µM, first compound 0.000949 µM): 109% | viability, T/C (second compound 3.16 µM, first compound 0.003 µM): 91.2% | viability, T/C (second compound 3.16 µM, first compound 0.00949 µM): 55.3% | viability, T/C (second compound 3.16 µM, first compound 0.03 µM): 2% | viability, T/C (second compound 3.16 µM, first compound 0.0949 µM): 0.56% | viability, T/C (second compound 3.16 µM, first compound 0.3 µM): 1.03% | viability, T/C (second compound 10 µM, first compound 0.000949 µM): 113% | viability, T/C (second compound 10 µM, first compound 0.003 µM): 98.7% | viability, T/C (second compound 10 µM, first compound 0.00949 µM): 60.1% | viability, T/C (second compound 10 µM, first compound 0.03 µM): 3.63% | viability, T/C (second compound 10 µM, first compound 0.0949 µM): 0.8% | viability, T/C (second compound 10 µM, first compound 0.3 µM): 0.85%

CC(C)CC(NC(=O)C(Cc1ccccc1)NC(=O)c1cnccn1)B(O)O (centres undefined)
viability, T/C (compound 0.000316 µM): 86.3% and 68.7% | viability, T/C (compound 0.001 µM): 5.76% and 3.52% | viability, T/C (compound 0.00316 µM): 4.42% and 2.33% | viability, T/C (compound 0.01 µM): 2.79% and 2.47% | viability, T/C (compound 0.0316 µM): 2.25% and 1.91% | viability, T/C (compound 0.1 µM): 0.92% and 0.81% | IC50 (curve of compound): 0.531 nM and 0.44 nM

O=C(c1cc(Cc2n[nH]c(=O)c3ccccc23)ccc1F)N1CCN(C(=O)C2CC2)CC1
viability, T/C (compound 0.0316 µM): 91.2% and 89.6% | viability, T/C (compound 0.1 µM): 93.7% and 93.2% | viability, T/C (compound 0.316 µM): 91.9% and 90% | viability, T/C (compound 1 µM): 94% and 84.9% | viability, T/C (compound 3.16 µM): 89.9% and 91.9% | viability, T/C (compound 10 µM): 95.3% and 95.9% | IC50 (curve of compound): > 10000 nM

CC1COCCN1c1cc(-c2ccnn2C)c2ccnc(-c3ccn[nH]3)c2n1 (centres undefined) + NC1CCC(NC2CC2c2ccccc2)CC1
IC50 [1]: 296 nM | IC50 [2]: 366 nM | IC50 [3]: 310 nM | IC50 [4]: 771 nM | IC50 [5]: 266 nM | viability, T/C [6]: 84.7% | viability, T/C [7]: 84.3% | viability, T/C [8]: 80% | viability, T/C [9]: 58.1% | viability, T/C [10]: 54.1% | viability, T/C [11]: 44.2% | viability, T/C [12]: 81% | viability, T/C [13]: 86.4% | viability, T/C [14]: 75.2% | viability, T/C [15]: 59.8% | viability, T/C [16]: 51.7% | viability, T/C [17]: 47.1% | viability, T/C [18]: 73.6% | viability, T/C [19]: 78.7% | viability, T/C [20]: 74.2% | viability, T/C [21]: 57.7% | viability, T/C [22]: 51.8% | viability, T/C [23]: 47.6% | viability, T/C [24]: 88% | viability, T/C [25]: 82.6% | viability, T/C [26]: 69.9% | viability, T/C [27]: 60.1% | viability, T/C [28]: 53.9% | viability, T/C [29]: 48.5% | viability, T/C [30]: 86.7% | viability, T/C [31]: 78.8% | viability, T/C [32]: 74.5% | viability, T/C [33]: 56.2% | viability, T/C [34]: 49% | viability, T/C [35]: 46.5%

CC(C)CC(NC(=O)CNC(=O)c1cc(Cl)ccc1Cl)B1OC(=O)CC(CC(=O)O)(C(=O)O)O1 (centres undefined) + NC1CCC(NC2CC2c2ccccc2)CC1
IC50 [1]: 18.6 nM | IC50 [2]: 19.5 nM | IC50 [3]: 18.7 nM | IC50 [4]: 21.5 nM | IC50 [5]: 20.1 nM | viability, T/C (second compound 0.1 µM, first compound 0.000316 µM): 107% | viability, T/C (second compound 0.1 µM, first compound 0.001 µM): 109% | viability, T/C [6]: 102% | viability, T/C [7]: 78% | viability, T/C [8]: 26.1% | viability, T/C [9]: 8.24% | viability, T/C (second compound 0.316 µM, first compound 0.000316 µM): 106% | viability, T/C (second compound 0.316 µM, first compound 0.001 µM): 106% | viability, T/C [12]: 101% | viability, T/C [13]: 78.5% | viability, T/C [14]: 29.5% | viability, T/C [15]: 8.69% | viability, T/C (second compound 1 µM, first compound 0.000316 µM): 103% | viability, T/C (second compound 1 µM, first compound 0.001 µM): 105% | viability, T/C [18]: 120% | viability, T/C [19]: 71.9% | viability, T/C [20]: 31.4% | viability, T/C [21]: 7.57% | viability, T/C (second compound 3.16 µM, first compound 0.000316 µM): 99.5% | viability, T/C (second compound 3.16 µM, first compound 0.001 µM): 107% | viability, T/C [24]: 102% | viability, T/C [25]: 85.8% | viability, T/C [26]: 31.9% | viability, T/C [27]: 9.23% | viability, T/C (second compound 10 µM, first compound 0.000316 µM): 102% | viability, T/C (second compound 10 µM, first compound 0.001 µM): 104% | viability, T/C [30]: 105% | viability, T/C [31]: 75.7% | viability, T/C [32]: 33% | viability, T/C [33]: 6.12%

CC1(C)CCC(CN2CCN(c3ccc(C(=O)NS(=O)(=O)c4ccc(NCC5CCOCC5)c([N+](=O)[O-])c4)c(Oc4cnc5[nH]ccc5c4)c3)CC2)=C(c2ccc(Cl)cc2)C1 + NC1CC1c1ccc(-c2cccc(O)c2)cc1
IC50 [1]: 5680 nM | IC50 [2]: 5200 nM | IC50 [3]: 5540 nM | IC50 [4]: 5490 nM | IC50 [5]: 4930 nM | viability, T/C [8]: 91.2% | viability, T/C [9]: 99.9% | viability, T/C [10]: 99% | viability, T/C [11]: 84.2% | viability, T/C (second compound 0.1 µM, first compound 3.16 µM): 85.7% | viability, T/C (second compound 0.1 µM, first compound 10 µM): 16.9% | viability, T/C [14]: 98.6% | viability, T/C [15]: 101% | viability, T/C [16]: 87.1% | viability, T/C [17]: 84% | viability, T/C (second compound 0.316 µM, first compound 3.16 µM): 79.2% | viability, T/C (second compound 0.316 µM, first compound 10 µM): 16.1% | viability, T/C [20]: 94.3% | viability, T/C [21]: 97.4% | viability, T/C [22]: 95.6% | viability, T/C [23]: 95.7% | viability, T/C (second compound 1 µM, first compound 3.16 µM): 79.2% | viability, T/C (second compound 1 µM, first compound 10 µM): 19% | viability, T/C [26]: 96.5% | viability, T/C [27]: 105% | viability, T/C [28]: 101% | viability, T/C [29]: 84.8% | viability, T/C (second compound 3.16 µM, first compound 3.16 µM): 80.6% | viability, T/C (second compound 3.16 µM, first compound 10 µM): 20% | viability, T/C [32]: 94.9% | viability, T/C [33]: 95.6% | viability, T/C [34]: 97.3% | viability, T/C [35]: 92.1% | viability, T/C (second compound 10 µM, first compound 3.16 µM): 72.5% | viability, T/C (second compound 10 µM, first compound 10 µM): 14.2%
